Holding throughout (type): cell-based, Saccharomyces cerevisiae
One test relates to yCM30 (Δpdr1). Kind of test: Growth inhibition (sensitivity to cytotoxic products) as measure of permeability, strain yCM30. The conditions noted are these: for EC50: Saccharomyces cerevisiae; for RATIO: EC50 5247 (wt) / EC50 yCM30, 2880 min. How it is done: (§1) The strain 5247 is transformed as described in 3) with the fragments prepared as described in 2a), 2b), 2c). After elimination of the selectable marker, the strains yCM30 (Δpdr1, ura3, trp1, MAT α), yCM63 (Δerg4, ura3, trp1, MAT α) and yCM65 (Δpdr1, Δerg4, ura3, trp1, MAT α) are obtained.
(§2) The permeability of the yeasts obtained in Example 1 is determined by measuring the sensitivity to different cytotoxic products. The different yeasts are inoculated at an optical density of 0.05 to 700 nm in YNB minimum medium correctly supplemented with bases and amino acids in the presence of an increasing concentration of xenobiotics. The cultures are placed at 28° C. and at 200 rpm for 48 hours. The optical density at 700 nm is then measured. The EC50 is then determined as the xenobiotic concentration inhibiting the growth of the yeast by half compared with a control without xenobiotic.
(§3) This evaluation was carried out according to the procedure described in Example 2.

In another test the test system is yCM65 (Δpdr1, Δerg4). Kind of test: Growth inhibition (sensitivity to cytotoxic products) as measure of permeability, strain yCM65. Conditions: for EC50: Saccharomyces cerevisiae; for RATIO: EC50 5247 (wt) / EC50 yCM65, 2880 min. How it is done:
as §1, §2

The test system of a further test is yCM57 (Δpdr1, Δerg6). As to the kind of experiment: Growth inhibition (sensitivity to cytotoxic products) as measure of permeability, strain yCM57. The conditions noted are these: for RATIO: EC50 5247 (wt) / EC50 yCM57, 2880 min. As for the experimental part: as §2
The strain yCM30 is transformed by the fragment prepared as described in la. After elimination of the selectable marker, the strain yCM57 (Δpdr1, Δerg6, ura3, trp1, MAT α) is obtained.
as §3

Another test concerns yCM63 (Δerg4). As to the kind of experiment: Growth inhibition (sensitivity to cytotoxic products) as measure of permeability, strain yCM63. Conditions: for RATIO: EC50 5247 (wt) / EC50 yCM63, 2880 min; for EC50: Saccharomyces cerevisiae, YNB minimum medium, 28° C., 48 hours, OD 700 nm. As for the experimental part: as §1, §2
In test [1] the test system is 5247 (wt). Kind of test: Growth inhibition (sensitivity to cytotoxic products) as measure of permeability, wild-type strain (Examples 2 and 4). The conditions noted are these: for EC50: Saccharomyces cerevisiae; for RATIO: EC50 relative to wild type 5247, 2880 min. How it is done: (§4) The strain of yeast used is the strain S. cerevisiae 5247 (Marcireau, 1992) of the ura3, trp1, MAT α genotype. This strain is transformed according to the method described by Gietz (Gietz, 1992).
as §2, §3

A further test has as its system yCM55 (Δerg6). As to the kind of experiment: Growth inhibition (sensitivity to cytotoxic products) as measure of permeability, strain yCM55. The conditions noted are these: for EC50: Saccharomyces cerevisiae; for RATIO: EC50 5247 (wt) / EC50 yCM55, 2880 min. As for the experimental part:
as §2
The strain 5247 is transformed by the fragment prepared as described in 1a. After elimination of the selectable marker, the strain yCM55 (Δerg6,ura3, trp1, MAT α) is obtained.
as §3

For test [2], the system named is 5247 (wt). Kind of test: Growth inhibition (sensitivity to cytotoxic products) as measure of permeability, wild-type strain (Example 6). How it is done: as §4
(§5) The permeability of the yeast strains 5247 and yCM61 is determined by measurement of the sensitivity to different cytotoxic products. The different yeasts are inoculated at an optical density of 0.05 to 700 nm in YNB minimum medium correctly supplemented with bases and amino acids in the presence of an increasing concentration of xenobiotics. The cultures are placed at 28° C. and at 200 rpm for 48 hours. The optical density at 700 nm is then measured. The EC50 is determined as the xenobiotic concentration inhibiting the growth of the yeast by half compared with a control without xenobiotic.

For test [3], the system named is yCM61 (Δpdr1, Δpdr5, Δsnq2, Δerg6). As to the kind of experiment: Growth inhibition (sensitivity to cytotoxic products) as measure of permeability, strain yCM61 (Example 6).
Excerpt: The strain yCM30 is transformed by the fragment prepared as described in Example 5 in 1a. After elimination of the selectable marker, the strain yCM45 (Δpdr1, Δpdr5, ura3, trp1, MAT α) is obtained. The strain yCM45 is transformed by the fragment prepared as described in Example 5 in 1b. After elimination of the selectable marker, the strain yCM51 (Δpdr1, Δpdr5, Δsnq2, ura3, trp1, MAT α) is obtained. The strain yCM51 is transformed by the fragment prepared as described in Example 1 in 1a. After elimination of the selectable marker, the strain yCM61 (Δpdr1, Δpdr5, Δsnq2, Δerg6, ura3, trp1, MAT α) is obtained.
as §5

Setting [4] is: strain yCM30 (Δpdr1), YNB minimum medium, 28° C., 48 hours, OD 700 nm, read-out: EC50.
Setting [5] is: strain yCM65 (Δpdr1, Δerg4), YNB minimum medium, 28° C., 48 hours, OD 700 nm, read-out: EC50.
The mark [6] stands for this setting: strain 5247 (wt), YNB minimum medium, 28° C., 48 hours, OD 700 nm, read-out: EC50.
Where [7] appears, read: strain yCM55 (Δerg6), YNB minimum medium, 28° C., 48 hours, OD 700 nm, read-out: EC50.
[8] abbreviates: EC50 5247 (wt) / EC50 yCM61, 2880 min.
The mark [9] stands for this setting: Saccharomyces cerevisiae, Example 6, strain 5247 (wt), YNB minimum medium, 28° C., 48 hours, OD 700 nm, read-out: EC50.
Where [10] appears, read: Saccharomyces cerevisiae, Example 6, strain yCM61 (Δpdr1, Δpdr5, Δsnq2, Δerg6), YNB minimum medium, 28° C., 48 hours, OD 700 nm, read-out: EC50.

The structures appear in SMILES notation. Like-named read-outs stand apart in the source and are kept apart here. Numbered stars: 1 amine (or outer) side, 2 acyl side, 3 side chain; on linkers, the order of the positions; unused ones are H or OH. Bridge positions count the residues as written; N and C are the ends. Square brackets hold non-standard residues; d marks the D form. Peptide text beside a SMILES is read from it. I, II: the chains in the order shown. Actinocin(9to1) = Cc1c2oc3c(C)ccc(C(=O)[*:1])c3nc-2c(C(=O)[*:2])c(N)c1=O; NMeV = CN[C@H](C(=O)O)C(C)C; Sar = CNCC(=O)O Bounds are passed on as bounds.

Usually EC50 stands for the concentration that produces a half-maximal response. Consider `Cc1c2oc3c(C)ccc(C(=O)N[C@@H]4C(=O)N[C@H](C(C)C)C(=O)N5CCC[C@H]5C(=O)N(C)CC(=O)N(C)[C@@H](C(C)C)C(=O)O[C@@H]4C)c3nc-2c(C(=O)N[C@@H]2C(=O)N[C@H](C(C)C)C(=O)N3CCC[C@H]3C(=O)N(C)CC(=O)N(C)[C@@H](C(C)C)C(=O)O[C@@H]2C)c(N)c1=O` [ACTINOMYCIN D, actinomycin D] (I: T[dV]P[Sar][NMeV] / II: T[dV]P[Sar][NMeV]; ester I:1-I:C, II:1-II:C; linker I:N-II:N via Actinocin(9to1)), for which the EC50 was 12.7 µM in the test on yCM30 (Δpdr1) (setting [4]); 5.8 µM in the test on yCM65 (Δpdr1, Δerg4) (setting [5]); 6.4 µM with yCM63 (Δerg4); 23.9 µM in the test on 5247 (wt) [1] (setting [6]); 5.6 µM with yCM55 (Δerg6) (setting [7]). The RATIO in the test on yCM30 (Δpdr1) (strain yCM30 (Δpdr1)) is reported as 1.9; with yCM65 (Δpdr1, Δerg4) (strain yCM65 (Δpdr1, Δerg4)), 4.1; with yCM57 (Δpdr1, Δerg6) (strain yCM57 (Δpdr1, Δerg6)), 31.9; in the test on yCM63 (Δerg4), 3.7; in the test with 5247 (wt) [1] (strain 5247 (wt)), 1; in the test with yCM55 (Δerg6) (strain yCM55 (Δerg6)), 4.3. The IC50 in the test with yCM57 (Δpdr1, Δerg6) (Saccharomyces cerevisiae, strain yCM57 (Δpdr1, Δerg6), YNB minimum medium, 28° C., 48 hours, OD 700 nm, read-out: EC50 (the source's name)) is 0.75 µM.
Take `CC[C@@]1(O)C(=O)OCc2c1cc1n(c2=O)Cc2cc3ccccc3nc2-1` [Camptothecin]: the EC50 is > 574 µM with 5247 (wt) [2] (Saccharomyces cerevisiae, 48 h) and 5.74 µM in test [3] (Saccharomyces cerevisiae, 48 h). In addition, in test [3] (setting [8]), the RATIO was > 100.
`C[C@@H]1C[C@@H]([C@H](O)CC2CC(=O)NC(=O)C2)C(=O)[C@@H](C)C1` [Cycloheximide]: the EC50 with yCM30 (Δpdr1) (48 h) came to 2.5 µM; in the test on 5247 (wt) [2] (Saccharomyces cerevisiae, 48 h), 71 µM; in the test on yCM65 (Δpdr1, Δerg4) (48 h), 0.5 µM; in test [3] (Saccharomyces cerevisiae, 48 h), 0.142 µM; with 5247 (wt) [1] (48 h), 53 µM; in the test with yCM55 (Δerg6) (48 h), 2.3 µM. Besides, the RATIO was 21.2 in the test with yCM30 (Δpdr1) (strain yCM30 (Δpdr1)); 106 in the test on yCM65 (Δpdr1, Δerg4) (strain yCM65 (Δpdr1, Δerg4)); 265 in the test with yCM57 (Δpdr1, Δerg6) (strain yCM57 (Δpdr1, Δerg6)); 500 in test [3] (setting [8]); 1 in the test on 5247 (wt) [1] (strain 5247 (wt)); 23 in the test on yCM55 (Δerg6) (strain yCM55 (Δerg6)). The IC50 in the test with yCM57 (Δpdr1, Δerg6) (Saccharomyces cerevisiae, 48 h, read-out: EC50) was determined as 0.2 µM.
On to `COc1cccc2c1C(=O)c1c(O)c3c(c(O)c1C2=O)C[C@@](O)(C(=O)CO)C[C@@H]3O[C@H]1C[C@H](N)[C@H](O)[C@H](C)O1` [DOXORUBICIN, doxorubicin], for which the EC50 with yCM30 (Δpdr1) (setting [4]) was 18.4 µM; in the test on yCM65 (Δpdr1, Δerg4) (setting [5]), 5.15 µM; with yCM57 (Δpdr1, Δerg6) (Saccharomyces cerevisiae, strain yCM57 (Δpdr1, Δerg6), YNB minimum medium, 28° C., 48 hours, OD 700 nm) it was 1.7 µM; in the test with yCM63 (Δerg4), 9.2 µM; in the test on 5247 (wt) [1] (setting [6]), 40.5 µM; with yCM55 (Δerg6) (setting [7]), 12 µM. The RATIO in the test on yCM30 (Δpdr1) (strain yCM30 (Δpdr1)) was determined as 2.2; in the test on yCM65 (Δpdr1, Δerg4) (strain yCM65 (Δpdr1, Δerg4)) it was 7.8; in the test with yCM57 (Δpdr1, Δerg6) (strain yCM57 (Δpdr1, Δerg6)), 23.8; with yCM63 (Δerg4), 4.4; with 5247 (wt) [1] (strain 5247 (wt)) it was 1; with yCM55 (Δerg6) (strain yCM55 (Δerg6)), 3.4.
For the compound `CC[C@H](C)C(=O)O[C@H]1C[C@@H](C)C=C2C=C[C@H](C)[C@H](CC[C@@H]3C[C@@H](O)CC(=O)O3)[C@H]21` [Lovastatin], the EC50 with 5247 (wt) [2] (setting [9]) was 143 µM; in test [3] (setting [10]) it was 3.8 µM. In addition, the RATIO in test [3] (s. cerevisiae ycm61, 2880 min) is recorded as 37.
For the compound `CO[C@@H]1[C@@H](OC(N)=O)[C@@H](O)[C@H](Oc2ccc3c(O)c(NC(=O)c4ccc(O)c(CC=C(C)C)c4)c(=O)oc3c2C)OC1(C)C` [Novobiocin], the EC50 with 5247 (wt) [2] (setting [9]) came out at 245 µM; in test [3] (setting [10]) it was 9 µM. For the same compound, the RATIO in test [3] (setting [8]) is reported as 27.
Turning to `Cc1cc(C)nc(NC(=O)NS(=O)(=O)c2ccccc2C(=O)O)n1` [Sulphomethuron], the EC50 in the test on 5247 (wt) [2] (Example 6, strain 5247 (wt), YNB minimum medium, 28° C., 48 hours, OD 700 nm, read-out: EC50) was 6.9 µM; in test [3] (Example 6, strain yCM61 (Δpdr1, Δpdr5, Δsnq2, Δerg6), YNB minimum medium, 28° C., 48 hours, OD 700 nm, read-out: EC50) it was < 0.13 µM. For the same compound, in test [3] (setting [8]), the RATIO is on record as > 50.

The record behind these values is US5821038A, “Yeast with modified permeability” (priority 1994, dated 1998).
